Measured values taken from patent publication US4156724A, “N-acylamino-alpha-arylacetamido cephalosporins and antibacterial compositions and methods containing them” (Sumitomo Chemical Company, Limited, priority 1974, dated 1979).
Converted amounts (≈) assume the structure as drawn.

Legend:
Type in all cases: cell-based
[1] = test system: Staphylococcus aureus 209 P; assay: Minimum Inhibitory Concentration, Staphylococcus aureus 209 P; details: Staphylococcus aureus 209 P; read-out: Minimum Inhibitory Concentration
Protocol: (§1) anti-microbial activity tests were carried out on the compounds obtained in the Examples.

[2] = test system: Staphylococcus aureus FS 289; assay: Minimum Inhibitory Concentration, Staphylococcus aureus FS 289; details: FS289; Staphylococcus aureus FS 289, strain resistant to penicillin; read-out: Minimum Inhibitory Concentration
Protocol: as §1
*Staphylococcus aureus FS 289: strain resistant to penicillin

Escherichia coli NIHJ = assay: Minimum Inhibitory Concentration, Escherichia coli NIHJ; details: Escherichia coli NIHJ; read-out: Minimum Inhibitory Concentration
Protocol: as §1

[3] = test system: Klebsiella pneumoniae 602; assay: Minimum Inhibitory Concentration, Klebsiella pneumoniae 602; details: Klebsiella pneumoniae, 602, Klebsiella pneumoniae 602; read-out: Minimum Inhibitory Concentration
Protocol: as §1

Proteus vulgaris HX 19 = assay: Minimum Inhibitory Concentration, Proteus vulgaris HX 19; details: HX19; Proteus vulgaris HX 19; read-out: Minimum Inhibitory Concentration
Protocol: as §1

[4] = test system: Pseudomonas aeruginosa 104; assay: Minimum Inhibitory Concentration, Pseudomonas aeruginosa 104; details: Pseudomonas aeruginosa 104; read-out: Minimum Inhibitory Concentration
Protocol: as §1

Serratia No. 72 = assay: Minimum Inhibitory Concentration, Serratia No. 72
Protocol: as §1

[5] = test system: Enterobacter aerogeneus No. 75; assay: Minimum Inhibitory Concentration, Enterobacter aerogeneus No. 75; details: Enterobacter aerogeneus No. 75; read-out: Minimum Inhibitory Concentration
Protocol: as §1

Row | MIC [1] [µg/mL] | MIC [2] [µg/mL] | MIC (Escherichia coli NIHJ) [µg/mL] | MIC [3] [µg/mL] | MIC (Proteus vulgaris HX 19) [µg/mL] | MIC [4] [µg/mL] | MIC (Serratia No. 72) [µg/mL] | MIC [5] [µg/mL] | Structure (SMILES)
1 | 0.39 (≈ 0.65 µM) | 6.25 (≈ 10.4 µM) | 6.25 (≈ 10.4 µM) | 6.25 (≈ 10.4 µM) | 0.39 (≈ 0.65 µM) | 6.25 (≈ 10.4 µM) | 50 (≈ 83.4 µM) | 12.5 (≈ 20.8 µM) | Cn1nnnc1SCC1=C(C(=O)O)N2C(=O)C(NC(=O)[C@H](NC(=O)c3ccnnc3O)c3ccc(O)cc3)C2SC1 (stereo partly drawn) [Example 128]
2 | 0.78 (≈ 1.15 µM) | 6.25 (≈ 9.2 µM) | 3.13 (≈ 4.6 µM) | 1.56 (≈ 2.3 µM) | 0.2 (≈ 0.294 µM) | 3.13 (≈ 4.6 µM) | 12.5 (≈ 18.4 µM) | 3.13 (≈ 4.6 µM) | COc1ccc2ncc(C(=O)NC(C(=O)NC3C(=O)N4C(C(=O)O)=C(CSc5nnnn5C)CSC34)c3cccc(O)c3)c(O)c2n1 (stereo not drawn) [Example 164]
3 | 0.39 (≈ 0.58 µM) | 6.25 (≈ 9.29 µM) | 12.5 (≈ 18.6 µM) | 3.13 (≈ 4.65 µM) | 0.39 (≈ 0.58 µM) | 12.5 (≈ 18.6 µM) | 50 (≈ 74.3 µM) | 12.5 (≈ 18.6 µM) | NC(=O)Nc1cccc(C(NC(=O)c2cnccc2O)C(=O)NC2C(=O)N3C(C(=O)O)=C(CSc4nnc(CO)s4)CSC23)c1 (stereo not drawn) [Example 45]
4 | 0.78 (≈ 1.17 µM) | 6.25 (≈ 9.4 µM) | 3.13 (≈ 4.71 µM) | 3.13 (≈ 4.71 µM) | 0.1 (≈ 0.15 µM) | 3.13 (≈ 4.71 µM) | 12.5 (≈ 18.8 µM) | 3.13 (≈ 4.71 µM) | Cn1nnnc1SCC1=C(C(=O)O)N2C(=O)C(NC(=O)C(NC(=O)c3cnc4ccc(O)nc4c3O)c3cccc(N)c3)C2SC1 (stereo not drawn) [Example 77]
5 | 1.56 (≈ 2.34 µM) | 12.5 (≈ 18.7 µM) | 3.13 (≈ 4.69 µM) | 1.56 (≈ 2.34 µM) | 0.2 (≈ 0.3 µM) | 3.13 (≈ 4.69 µM) | 25 (≈ 37.4 µM) | 3.13 (≈ 4.69 µM) | O=C(O)C1=C(CSc2nncs2)CSC2C(NC(=O)C(NC(=O)c3cnc4cccnc4c3O)c3ccc(O)c(O)c3)C(=O)N12 (stereo not drawn) [Example 171]
6 | 0.39 (≈ 0.634 µM) | 6.25 (≈ 10.2 µM) | 25 (≈ 40.7 µM) | 12.5 (≈ 20.3 µM) | 0.2 (≈ 0.325 µM) | 6.25 (≈ 10.2 µM) | > 200 | 25 (≈ 40.7 µM) | Cc1nnc(SCC2=C(C(=O)O)N3C(=O)C(NC(=O)C(NC(=O)c4cncnc4O)c4ccc(N)cc4)C3SC2)s1 (stereo not drawn) [Example 61]
7 | 1.56 (≈ 2.4 µM) | 6.25 (≈ 9.63 µM) | 1.56 (≈ 2.4 µM) | 3.13 (≈ 4.83 µM) | 0.1 (≈ 0.154 µM) | 3.13 (≈ 4.83 µM) | 12.5 (≈ 19.3 µM) | 3.13 (≈ 4.83 µM) | Cn1nnnc1SCC1=C(C(=O)O)N2C(=O)C(NC(=O)C(NC(=O)c3cnc4cccnc4c3O)c3ccc(N)cc3)C2SC1 (stereo not drawn) [Example 71]
8 | 1.56 (≈ 2.57 µM) | 6.25 (≈ 10.3 µM) | 12.5 (≈ 20.6 µM) | 3.13 (≈ 5.16 µM) | 0.39 (≈ 0.643 µM) | 6.25 (≈ 10.3 µM) | 100 (≈ 165 µM) | 25 (≈ 41.2 µM) | CC(=O)OCC1=C(C(=O)O)N2C(=O)C(NC(=O)C(NC(=O)c3cnc4nc(C)ccc4c3O)c3cccc(N)c3)C2SC1 (stereo not drawn) [Example 62]
9 | 1.56 (≈ 2.57 µM) | 6.25 (≈ 10.3 µM) | 3.13 (≈ 5.15 µM) | 1.56 (≈ 2.57 µM) | 0.78 (≈ 1.28 µM) | 6.25 (≈ 10.3 µM) | 50 (≈ 82.3 µM) | 6.25 (≈ 10.3 µM) | CC(=O)OCC1=C(C(=O)O)N2C(=O)C(NC(=O)C(NC(=O)c3cnc4cccnc4c3O)c3ccc(CO)cc3)C2SC1 (racemic) [Example 89, 7-[DL-α-(4-Hydroxy-1,5-naphthyridine-3-carbonamido)-α-p-hydroxymethylphenylacetamido]cephalosporanic Acid]
10 | 0.78 (≈ 1.15 µM) | 12.5 (≈ 18.5 µM) | 6.25 (≈ 9.25 µM) | 3.13 (≈ 4.63 µM) | 0.39 (≈ 0.577 µM) | 6.25 (≈ 9.25 µM) | 50 (≈ 74 µM) | 12.5 (≈ 18.5 µM) | Cc1cc(C(NC(=O)c2cnc3cccnc3c2O)C(=O)NC2C(=O)N3C(C(=O)O)=C(CSc4ccc(O)nn4)CSC23)ccc1O (stereo not drawn) [Example 161]
11 | 0.78 (≈ 1.17 µM) | 6.78 (≈ 10.2 µM) | 3.13 (≈ 4.7 µM) | 3.13 (≈ 4.7 µM) | 0.78 (≈ 1.17 µM) | 6.25 (≈ 9.39 µM) | 50 (≈ 75.1 µM) | 12.5 (≈ 18.8 µM) | COc1ccc2ncc(C(=O)N[C@@H](C(=O)N[C@@H]3C(=O)N4C(C(=O)O)=C(COC(C)=O)CS[C@H]34)c3cccc(NC(N)=O)c3)c(O)c2n1 [Example 33]
12 | 1.56 (≈ 2.24 µM) | 6.25 (≈ 8.98 µM) | 3.13 (≈ 4.5 µM) | 3.13 (≈ 4.5 µM) | 0.2 (≈ 0.287 µM) | 6.25 (≈ 8.98 µM) | 12.5 (≈ 18 µM) | 12.5 (≈ 18 µM) | O=C(O)C1=C(CSc2nnc(CO)s2)CSC2C(NC(=O)C(NC(=O)c3cnc4cccnc4c3O)c3ccc(CO)cc3)C(=O)N12 (stereo not drawn) [Example 103]
